Results from ChEMBL document CHEMBL1671662, “In vitro activities of telavancin and six comparator agents against anaerobic bacterial isolates” (2009).
Converted amounts (≈) assume the structure as drawn.

Key:
[1] = test system: Ruminococcus gnavus; test: Antibacterial activity against Ruminococcus gnavus by CLSI M11-A6 agar dilution method; format: functional; conditions: Mediterraneibacter gnavus
[2] = test system: Prevotella buccae; test: Antibacterial activity against Prevotella buccae by CLSI M11-A6 agar dilution method; format: functional; conditions: Segatella buccae
[3] = test system: Ruminococcus flavefaciens; test: Antibacterial activity against Ruminococcus flavefaciens by CLSI M11-A6 agar dilution method; format: functional
[4] = test system: Clostridium sp.; test: Antibacterial activity against Clostridium sp. by CLSI M11-A6 agar dilution method; format: functional
[5] = test system: Clostridium scindens; test: Antibacterial activity against Clostridium scindens by CLSI M11-A6 agar dilution method; format: functional
[6] = test system: Parabacteroides distasonis; test: Antibacterial activity against Parabacteroides distasonis by CLSI M11-A6 agar dilution method; format: functional
[7] = test system: Enterocloster clostridioformis; test: Antibacterial activity against Clostridium clostridioforme by CLSI M11-A6 agar dilution method; format: functional
[8] = test system: Blautia luti; test: Antibacterial activity against Ruminococcus luti by CLSI M11-A6 agar dilution method; format: functional
[9] = test system: Bilophila wadsworthia; test: Antibacterial activity against Bilophila wadsworthia by CLSI M11-A6 agar dilution method; format: functional
[10] = test system: Clostridium beijerinckii; test: Antibacterial activity against Clostridium beijerinckii by CLSI M11-A6 agar dilution method; format: functional
[11] = test system: Bifidobacterium pseudolongum; test: Antibacterial activity against Bifidobacterium pseudolongum by CLSI M11-A6 agar dilution method; format: functional
[12] = test system: Anaerococcus tetradius; test: Antibacterial activity against Anaerococcus tetradius by CLSI M11-A6 agar dilution method; format: functional
[13] = test system: Bacteroides thetaiotaomicron; test: Antibacterial activity against Bacteroides thetaiotaomicron by CLSI M11-A6 agar dilution method; format: functional
[14] = test system: Bifidobacterium longum; test: Antibacterial activity against Bifidobacterium longum by CLSI M11-A6 agar dilution method; format: functional
[15] = test system: Actinomyces naeslundii; test: Antibacterial activity against Actinomyces naeslundii by CLSI M11-A6 agar dilution method; format: functional
[16] = test system: Parabacteroides merdae; test: Antibacterial activity against Parabacteroides merdae by CLSI M11-A6 agar dilution method; format: functional
[17] = test system: Ruminococcus lactaris; test: Antibacterial activity against Ruminococcus lactaris by CLSI M11-A6 agar dilution method; format: functional
[18] = test system: Coprobacillus cateniformis; test: Antibacterial activity against Coprobacillus cateniformis by CLSI M11-A6 agar dilution method; format: functional
[19] = test system: Prevotella corporis; test: Antibacterial activity against Prevotella corporis by CLSI M11-A6 agar dilution method; format: functional
[20] = test system: Streptococcus anginosus; test: Antibacterial activity against Streptococcus anginosus by CLSI M11-A6 agar dilution method; format: functional
[21] = test system: Hoylesella oralis; test: Antibacterial activity against Prevotella oralis by CLSI M11-A6 agar dilution method; format: functional
[22] = test system: Bifidobacterium dentium; test: Antibacterial activity against Bifidobacterium dentium by CLSI M11-A6 agar dilution method; format: functional
[23] = test system: Fusobacterium mortiferum; test: Antibacterial activity against Fusobacterium mortiferum by CLSI M11-A6 agar dilution method; format: functional
[24] = test system: Anaerococcus prevotii; test: Antibacterial activity against Anaerococcus prevotii by CLSI M11-A6 agar dilution method; format: functional
[25] = test system: Clostridium disporicum; test: Antibacterial activity against Clostridium disporicum by CLSI M11-A6 agar dilution method; format: functional
[26] = test system: Bifidobacterium adolescentis; test: Antibacterial activity against Bifidobacterium adolescentis by CLSI M11-A6 agar dilution method; format: functional
[27] = Antibacterial activity against Bifidobacterium infantis by CLSI M11-A6 agar dilution method; format: functional, Bifidobacterium longum subsp. infantis; conditions: Bifidobacterium longum
[28] = test system: Clostridium spiroforme; test: Antibacterial activity against Clostridium spiroforme by CLSI M11-A6 agar dilution method; format: functional; conditions: Thomasclavelia spiroformis
[29] = test system: Clostridium sporosphaeroides; test: Antibacterial activity against Clostridium sporosphaeroides by CLSI M11-A6 agar dilution method; format: functional; conditions: Faecalispora sporosphaeroides
[30] = test system: Bifidobacterium bifidum; test: Antibacterial activity against Bifidobacterium bifidum by CLSI M11-A6 agar dilution method; format: functional
[31] = test system: Clostridium bartlettii; test: Antibacterial activity against Clostridium bartlettii by CLSI M11-A6 agar dilution method; format: functional; conditions: Intestinibacter bartlettii
[32] = test system: Ruminococcus torques; test: Antibacterial activity against Ruminococcus torques by CLSI M11-A6 agar dilution method; format: functional; conditions: Mediterraneibacter torques
[33] = test system: Clostridium glycolicum; test: Antibacterial activity against Clostridium glycolicum by CLSI M11-A6 agar dilution method; format: functional; conditions: Terrisporobacter glycolicus
[34] = test system: Paeniclostridium sordellii; test: Antibacterial activity against Clostridium sordellii by CLSI M11-A6 agar dilution method; format: functional; conditions: Paraclostridium sordellii
[35] = test system: Coriobacterium; test: Antibacterial activity against […] by CLSI M11-A6 agar dilution method; format: functional
[36] = test system: Bifidobacterium breve; test: Antibacterial activity against Bifidobacterium breve by CLSI M11-A6 agar dilution method; format: functional
[37] = test system: Finegoldia magna; test: Antibacterial activity against Finegoldia magna by CLSI M11-A6 agar dilution method; format: functional
[38] = test system: Prevotella denticola; test: Antibacterial activity against Prevotella P denticola by CLSI M11-A6 agar dilution method; format: functional
[39] = test system: [Clostridium] innocuum; test: Antibacterial activity against Clostridium innocuum by CLSI M11-A6 agar dilution method; format: functional
[40] = test system: Catenibacterium mitsuokai; test: Antibacterial activity against Catenibacterium mitsuokai by CLSI M11-A6 agar dilution method; format: functional
[41] = test system: Clostridium leptum; test: Antibacterial activity against Clostridium leptum by CLSI M11-A6 agar dilution method; format: functional
[42] = test system: Clostridium subterminale; test: Antibacterial activity against Clostridium subterminale by CLSI M11-A6 agar dilution method; format: functional
[43] = test system: Ruminococcus obeum; test: Antibacterial activity against Ruminococcus obeum by CLSI M11-A6 agar dilution method; format: functional; conditions: Blautia obeum

Work on `Cc1ncc([N+](=O)[O-])n1CCO` [METRONIDAZOLE] yielded an MIC50 [1] of 0.25 µg/mL (≈ 1.46 µM), an MIC90 [1] of 0.25 µg/mL (≈ 1.46 µM) and an MIC50 [2] of 0.5 µg/mL (≈ 2.92 µM). For the same compound, the MIC90 [2] was 1 µg/mL (≈ 5.84 µM), the MIC50 [3] was at most 0.12 µg/mL and the MIC90 [3] was 0.25 µg/mL (≈ 1.46 µM). It also gave an MIC50 [4] of 0.25 µg/mL (≈ 1.46 µM), an MIC90 [4] of 1 µg/mL (≈ 5.84 µM) and an MIC50 [5] of 0.25 µg/mL (≈ 1.46 µM). For the same compound, the MIC90 [5] was 1 µg/mL (≈ 5.84 µM), the MIC50 [6] was 1 µg/mL (≈ 5.84 µM) and the MIC90 [6] was 2 µg/mL (≈ 11.7 µM). For the same compound, the MIC [7] was at most 0.12 µg/mL, the MIC50 [7] was at most 0.12 µg/mL and the MIC90 [7] was at most 0.12 µg/mL. It also gave an MIC50 [8] of at most 0.12 µg/mL, an MIC90 [8] of 0.25 µg/mL (≈ 1.46 µM) and an MIC50 [9] of at most 0.12 µg/mL. The MIC90 [9] was 0.25 µg/mL (≈ 1.46 µM), the MIC50 [10] was 0.25 µg/mL (≈ 1.46 µM) and the MIC90 [10] was 1 µg/mL (≈ 5.84 µM). For the same compound, the MIC50 [11] was 1 µg/mL (≈ 5.84 µM), the MIC90 [11] was 128 µg/mL (≈ 748 µM) and the MIC50 [12] was 0.5 µg/mL (≈ 2.92 µM). For the same compound, the MIC90 [12] was 2 µg/mL (≈ 11.7 µM), the MIC50 [13] was 1 µg/mL (≈ 5.84 µM) and the MIC90 [13] was 1 µg/mL (≈ 5.84 µM). The MIC50 [14] was 1 µg/mL (≈ 5.84 µM), the MIC90 [14] was 128 µg/mL (≈ 748 µM) and the MIC50 [15] was 1 µg/mL (≈ 5.84 µM). For the same compound, the MIC90 [15] was 128 µg/mL (≈ 748 µM), the MIC50 [16] was 1 µg/mL (≈ 5.84 µM) and the MIC90 [16] was 2 µg/mL (≈ 11.7 µM). For the same compound, the MIC50 [17] was at most 0.12 µg/mL, the MIC90 [17] was 0.25 µg/mL (≈ 1.46 µM) and the MIC50 [18] was 1 µg/mL (≈ 5.84 µM). It also gave an MIC90 [18] of 128 µg/mL (≈ 748 µM), an MIC50 [19] of 0.5 µg/mL (≈ 2.92 µM) and an MIC90 [19] of 1 µg/mL (≈ 5.84 µM). It also gave an MIC50 [20] of 128 µg/mL (≈ 748 µM), an MIC90 [20] of over 128 µg/mL and an MIC50 [21] of 0.5 µg/mL (≈ 2.92 µM). It also gave an MIC90 [21] of 1 µg/mL (≈ 5.84 µM), an MIC50 [22] of 1 µg/mL (≈ 5.84 µM) and an MIC90 [22] of 128 µg/mL (≈ 748 µM). The MIC50 [23] was at most 0.12 µg/mL, the MIC90 [23] was 0.25 µg/mL (≈ 1.46 µM) and the MIC50 [24] was 0.5 µg/mL (≈ 2.92 µM). For the same compound, the MIC90 [24] was 2 µg/mL (≈ 11.7 µM), the MIC50 [25] was 0.25 µg/mL (≈ 1.46 µM) and the MIC90 [25] was 1 µg/mL (≈ 5.84 µM). It also gave an MIC50 [26] of 1 µg/mL (≈ 5.84 µM), an MIC90 [26] of 128 µg/mL (≈ 748 µM) and an MIC50 [27] of 1 µg/mL (≈ 5.84 µM). For the same compound, the MIC90 [27] was 128 µg/mL (≈ 748 µM), the MIC50 [28] was 0.25 µg/mL (≈ 1.46 µM) and the MIC90 [28] was 1 µg/mL (≈ 5.84 µM). It also gave an MIC50 [29] of 0.25 µg/mL (≈ 1.46 µM), an MIC90 [29] of 1 µg/mL (≈ 5.84 µM) and an MIC50 [30] of 1 µg/mL (≈ 5.84 µM). The MIC90 [30] was 128 µg/mL (≈ 748 µM), the MIC50 [31] was 0.25 µg/mL (≈ 1.46 µM) and the MIC90 [31] was 1 µg/mL (≈ 5.84 µM). The MIC50 [32] was at most 0.12 µg/mL, the MIC90 [32] was 0.25 µg/mL (≈ 1.46 µM) and the MIC50 [33] was 0.25 µg/mL (≈ 1.46 µM). The MIC90 [33] was 1 µg/mL (≈ 5.84 µM), the MIC50 [34] was 0.25 µg/mL (≈ 1.46 µM) and the MIC90 [34] was 1 µg/mL (≈ 5.84 µM). The MIC50 [35] was 1 µg/mL (≈ 5.84 µM), the MIC90 [35] was 128 µg/mL (≈ 748 µM) and the MIC50 [36] was 1 µg/mL (≈ 5.84 µM). It also gave an MIC90 [36] of 128 µg/mL (≈ 748 µM), an MIC50 [37] of 0.5 µg/mL (≈ 2.92 µM) and an MIC90 [37] of 2 µg/mL (≈ 11.7 µM). For the same compound, the MIC50 [38] was 0.5 µg/mL (≈ 2.92 µM), the MIC90 [38] was 1 µg/mL (≈ 5.84 µM) and the MIC50 [39] was 0.5 µg/mL (≈ 2.92 µM). It also gave an MIC90 [39] of 4 µg/mL (≈ 23.4 µM), an MIC50 [40] of 1 µg/mL (≈ 5.84 µM) and an MIC90 [40] of 128 µg/mL (≈ 748 µM). The MIC50 [41] was 0.25 µg/mL (≈ 1.46 µM), the MIC90 [41] was 1 µg/mL (≈ 5.84 µM) and the MIC50 [42] was at most 0.12 µg/mL. For the same compound, the MIC90 [42] was 0.25 µg/mL (≈ 1.46 µM), the MIC50 [43] was at most 0.12 µg/mL and the MIC90 [43] was at most 0.12 µg/mL.
